# Target: T1, human β3 adrenergic receptor (Homo sapiens, UniProt P13945)
# T1 construct: expressed in transfected cells; host or cells: DXB-11 Chinese hamster ovary (CHO) cell line, stably transfected (phd expression vector)
# Experiment: whole cell receptor coupled c-AMP assay, human β3 receptor in CHO cells (EC50, Emax relative to isoproterenol)
# Assay type: cell-based
# Details: Emax ± standard error of the mean; average of at least 3 runs except where n = 1; compound tested in the isolated form listed
# Text: The genes encoding the human β1-adrenergic receptor (Frielle et al., Proc. Natl. Acad. Sci., 84:7920-7924, 1987), the human β2-adrenergic receptor (Kobika et al., Proc. Natl. Acad. Sci., 84:46-50, 1987, Emorine et al., Proc. Natl. Acad. Sci., 84:6995-6999, 1987) and the human β3 adrenergic receptor (Granneman et al., Molecular Pharmacology, 44(2):264-70, 1993) are individually subcloned into a phd expression vector (Grinnell et al., Bio/Technology, 5:1189-1192, 1987) and transfected into the DXB-11 Chinese hamster ovary (CHO) cell line by calcium phosphate precipitation methodology. The stably transfected cells are grown to 95% confluency in 95% Dulbecco's modified Eagles Medium (DMEM), 5% fetal bovine serum and 0.01% proline. Media is removed and the cells are washed with phosphate buffered (pH 7.4) saline (without magnesium and calcium). Cells are then lifted using an enzyme free cell dissociation solution (Specialty Media, Lavallette, N.J.) and pelleted by centrifugation.
# Cells from each of the above cell lines are resuspended and added (20,000/well) to a 96-well plate. Cells are incubated at 37° C. with representative compounds of the invention for 20 minutes in buffer (Hank's balanced salt solution, 10 mM HEPES, 0.1% BSA, 1 mM L-ascorbic acid, 0.2% dimethyl sulfoxide, 1 mm 3-isobutyl-1-methylxanthine, pH 7.4). After halting the incubation with quench buffer (50 mM Na Acetate, 0.25% Triton X-100, pH 5.8), the c-AMP level is quantified by scintillation proximity assay (SPA) using a modification of the commercially available c-AMP kit (Amersham, Arlington Heights, Ill.) with rabbit anti-cAMP antibody (ICN Biomedicals, Aurora, Ohio) for the kit.
# Sigmoidal dose response curves, from the whole cell receptor coupled c-AMP assay are fit to a four parameter logistic equation using non linear regression: y=(a−d)/(1+(Dose/c)^b)+d where a and d are responses at zero and maximal dose, b is the slope factor and c is the EC50 as previously described (DeLean et al., Am. J. Physiol., 235, E97-E102, 1978). EC50 is assessed as the concentration producing 50% of the maximum response to each agonist.
# Isoproterenol is accepted in the art as a non-selective β3 agonist and is widely used as a comparator in evaluating the activity of compounds. See Trends in Pharm. Sci., 15:3, 1994. The % intrinsic activity (Emax) of representative compounds of the invention is assessed relative to isoproterenol by the compound's maximal response divided by the isoproterenol maximal response times 100.
# T1 sequence (P13945 whole entry): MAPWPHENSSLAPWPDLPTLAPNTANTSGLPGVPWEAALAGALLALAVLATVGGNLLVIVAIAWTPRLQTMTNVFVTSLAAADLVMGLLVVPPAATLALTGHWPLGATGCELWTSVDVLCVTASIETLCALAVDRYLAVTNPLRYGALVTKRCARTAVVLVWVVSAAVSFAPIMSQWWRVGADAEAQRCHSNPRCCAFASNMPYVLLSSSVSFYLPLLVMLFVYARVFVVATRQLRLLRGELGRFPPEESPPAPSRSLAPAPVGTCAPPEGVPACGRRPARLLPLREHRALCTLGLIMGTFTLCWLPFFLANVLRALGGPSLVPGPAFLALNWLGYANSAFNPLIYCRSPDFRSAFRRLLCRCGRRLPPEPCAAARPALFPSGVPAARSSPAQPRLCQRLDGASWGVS
row,SMILES,Emax (%) ± SEM
1,COC(=O)c1ccc(Oc2ccc(CC(C)(C)NC[C@H](O)COc3ccccc3-c3ccn(C)n3)cc2)nc1 [Example 114],56.6 n = 1%
2,COC(=O)c1ccc(Oc2ccc(CC(C)(C)NC[C@H](O)COc3ccccc3-c3cccs3)cc2)nc1 [Example 115],61.9 ± 7.0%
3,COC(=O)c1ccc(Oc2ccc(CC(C)(C)NC[C@H](O)COc3ccccc3-c3nccs3)cc2)nc1 [Example 116],58.2 ± 7.2%
4,COC(=O)c1ccc(Oc2ccc(CC(C)(C)NC[C@H](O)COc3ccccc3-c3ccno3)cc2)nc1 [Example 117],32.2 ± 6.5%
5,COC(=O)c1ccc(Oc2ccc(CC(C)(C)NC[C@H](O)COc3ccccc3-c3ccn[nH]3)cc2)nc1 [Example 118],29.5 n = 1%
6,CC(C)(Cc1ccc(Oc2ccc(C#N)cc2)cc1)NC[C@H](O)COc1ccccc1-c1cccs1.O=C(O)C(F)(F)F [Example 119],55.2 ± 3.6%
7,CC(C)(Cc1ccc(Oc2ccc(C#N)cc2)cc1)NC[C@H](O)COc1ccccc1-c1nccs1.O=C(O)C(F)(F)F [Example 120],35.8 ± 4.6%
8,CC(C)(Cc1ccc(Oc2ccc(C#N)cc2)cc1)NC[C@H](O)COc1ccccc1-c1ccno1.O=C(O)C(F)(F)F [Example 121],38.9 ± 7.1%
9,CC(C)(Cc1ccc(Oc2ccc(C(N)=O)cc2)cc1)NC[C@H](O)COc1ccccc1-c1cccs1.O=C(O)C(F)(F)F [Example 123],73.6 ± 8.2%
10,CC(C)(Cc1ccc(Oc2ccc(C(N)=O)cc2)cc1)NC[C@H](O)COc1ccccc1-c1nccs1.O=C(O)C(F)(F)F [Example 124],46.7 ± 3.6%
11,CC(C)(Cc1ccc(Oc2ccc(C(N)=O)cc2)cc1)NC[C@H](O)COc1ccccc1-c1ccno1.O=C(O)C(F)(F)F [Example 125],40.3 ± 7.9%
12,CC(C)(Cc1ccc(Oc2ccc(C(N)=O)cc2)cc1)NC[C@H](O)COc1ccccc1-c1ccns1.O=C(O)C(F)(F)F [Example 126],62.2 ± 1.3%
13,Cn1nccc1-c1ccccc1OC[C@@H](O)CNC(C)(C)Cc1ccc(Oc2ccc(S(C)(=O)=O)cc2)cc1 [Example 127],<10%
14,Cn1ccc(-c2ccccc2OC[C@@H](O)CNC(C)(C)Cc2ccc(Oc3ccc(S(C)(=O)=O)cc3)cc2)n1 [Example 128],40.6 n = 1%
15,CC(C)(Cc1ccc(Oc2ccc(S(C)(=O)=O)cc2)cc1)NC[C@H](O)COc1ccccc1-c1cccs1.O=C(O)C(F)(F)F [Example 129],53.2 ± 4.8%
16,CC(C)(Cc1ccc(Oc2ccc(S(C)(=O)=O)cc2)cc1)NC[C@H](O)COc1ccccc1-c1nccs1 [Example 130],49.5 ± 3.4%
17,CC(C)(Cc1ccc(Oc2ccc(S(C)(=O)=O)cc2)cc1)NC[C@H](O)COc1ccccc1-c1nccs1.O=C(O)C(F)(F)F [Example 131],43.5 ± 1.4%
18,CC(C)(Cc1ccc(Oc2ccc(S(C)(=O)=O)cc2)cc1)NC[C@H](O)COc1ccccc1-c1ccno1 [Example 132],34.6 ± 7.8%
19,CC(C)(Cc1ccc(Oc2ccc(S(C)(=O)=O)cc2)cc1)NC[C@H](O)COc1ccccc1-c1ccn[nH]1 [Example 133],21.4 n = 1%
20,CC(C)(Cc1ccc(Oc2ccc(S(C)(=O)=O)cc2)cc1)NC[C@H](O)COc1ccccc1-c1ccon1.Cl [Example 134],47.7 ± 6.5%
21,CC(C)(Cc1ccc(Oc2ccc(S(C)(=O)=O)cc2)cc1)NC[C@H](O)COc1ccccc1-c1ccno1.O=C(O)C(F)(F)F [Example 135],35.2 ± 4.3%
22,CC(C)(Cc1ccc(Oc2ccc(S(C)(=O)=O)cc2)cc1)NC[C@H](O)COc1cc(F)ccc1C1=CC(=O)OC1.Cl [Example 136],<10%
23,COC(=O)c1ccc(Oc2ccc(CC(C)(C)NC[C@H](O)COc3ccccc3-c3ccnn3C)cc2)c(Cl)c1 [Example 137],<10%
24,COC(=O)c1ccc(Oc2ccc(CC(C)(C)NC[C@H](O)COc3ccccc3-c3ccn(C)n3)cc2)c(Cl)c1 [Example 138],41.7 n = 1%
25,COC(=O)c1ccc(Oc2ccc(CC(C)(C)NC[C@H](O)COc3ccccc3-c3cccs3)cc2)c(Cl)c1 [Example 139],62.2 ± 7.4%

row,SMILES,Emax (%) ± SEM
1,COC(=O)c1ccc(Oc2ccc(CC(C)(C)NC[C@H](O)COc3ccccc3-c3nccs3)cc2)c(Cl)c1 [Example 140],48.9 ± 2.5%
2,COC(=O)c1ccc(Oc2ccc(CC(C)(C)NC[C@H](O)COc3ccccc3-c3ccno3)cc2)c(Cl)c1 [Example 141],48.3 ± 9.9%
3,COC(=O)c1ccc(Oc2ccc(CC(C)(C)NC[C@H](O)COc3ccccc3-c3ccn[nH]3)cc2)c(Cl)c1 [Example 142],20.2 n = 1%
4,CC(C)(Cc1ccc(Oc2cccnc2C#N)cc1)NC[C@H](O)COc1ccccc1-c1cccs1.O=C(O)C(F)(F)F [Example 143],67.2 ± 4.8%
5,CC(C)(Cc1ccc(Oc2cccnc2C#N)cc1)NC[C@H](O)COc1ccccc1-c1nccs1.O=C(O)C(F)(F)F [Example 144],55.9 ± 1.1%
6,CC(C)(Cc1ccc(Oc2ccc(C#N)nc2)cc1)NC[C@H](O)COc1ccccc1-c1nccs1.O=C(O)C(F)(F)F [Example 145],44.6 ± 6.2%
7,CC(C)(Cc1ccc(Oc2cccnc2C#N)cc1)NC[C@H](O)COc1ccccc1-c1ccno1.O=C(O)C(F)(F)F [Example 146],58.7 ± 2.9%
8,CC(C)(Cc1ccc(Oc2cccnc2C#N)cc1)NC[C@H](O)COc1ccccc1-c1ccns1.O=C(O)C(F)(F)F [Example 147],58.9 ± 3.6%
9,CC(C)(Cc1ccc(Oc2ncccn2)cc1)NC[C@H](O)COc1ccccc1-c1cccs1.O=C(O)C(F)(F)F [Example 150],69.8 ± 6.0%
10,CC(C)(Cc1ccc(Oc2ncccn2)cc1)NC[C@H](O)COc1ccccc1-c1nccs1.O=C(O)C(F)(F)F [Example 151],73.1 ± 3.8%
11,CC(C)(Cc1ccc(Oc2ncccn2)cc1)NC[C@H](O)COc1ccccc1-c1ccno1.O=C(O)C(F)(F)F [Example 152],45.3 ± 4.2%
12,CC(C)(Cc1ccc(Oc2cnccn2)cc1)NC[C@H](O)COc1ccccc1-c1cccs1.O=C(O)C(F)(F)F [Example 153],66.8 ± 5.5%
13,CC(C)(Cc1ccc(Oc2cnccn2)cc1)NC[C@H](O)COc1ccccc1-c1nccs1.O=C(O)C(F)(F)F [Example 154],61.1 ± 7.7%
14,CC(C)(Cc1ccc(Oc2cnccn2)cc1)NC[C@H](O)COc1ccccc1-c1ccno1.O=C(O)C(F)(F)F [Example 155],46.6 ± 4.2%
15,CC(C)(Cc1ccc(Oc2nc(Cl)c(Cl)cc2Cl)cc1)NC[C@H](O)COc1ccccc1-c1cccs1.O=C(O)C(F)(F)F [Example 156],84.9 ± 0.2%
16,CC(C)(Cc1ccc(Oc2nc(Cl)c(Cl)cc2Cl)cc1)NC[C@H](O)COc1ccccc1-c1nccs1.O=C(O)C(F)(F)F [Example 157],73.3 ± 6.6%
17,CC(C)(Cc1ccc(Oc2nc(Cl)c(Cl)cc2Cl)cc1)NC[C@H](O)COc1ccccc1-c1ccno1.O=C(O)C(F)(F)F [Example 158],73.0 ± 3.0%
18,CC(C)(Cc1ccc(Oc2ncc(C(F)(F)F)cc2Cl)cc1)NC[C@H](O)COc1ccccc1-c1cccs1.O=C(O)C(F)(F)F [Example 159],76.9 ± 7.4%
19,CC(C)(Cc1ccc(Oc2ncc(C(F)(F)F)cc2Cl)cc1)NC[C@H](O)COc1ccccc1-c1ccno1.O=C(O)C(F)(F)F [Example 160],56.3 ± 1.4%
20,CC(C)(Cc1ccc(Oc2ccc(C#N)cc2Cl)cc1)NC[C@H](O)COc1ccccc1-c1cccs1.O=C(O)C(F)(F)F [Example 161],52.5 ± 4.7%
21,CC(C)(Cc1ccc(Oc2ccc(C#N)cc2Cl)cc1)NC[C@H](O)COc1ccccc1-c1ccno1.O=C(O)C(F)(F)F [Example 163],44.6 ± 4.3%
22,CC(C)(Cc1ccc(Oc2ccc(C(N)=O)cc2Cl)cc1)NC[C@H](O)COc1ccccc1-c1cccs1.O=C(O)C(F)(F)F [Example 164],67.3 ± 3.5%
23,CC(C)(Cc1ccc(Oc2ccc(C(N)=O)cc2Cl)cc1)NC[C@H](O)COc1ccccc1-c1nccs1.O=C(O)C(F)(F)F [Example 165],49.7 ± 3.9%
24,CC(C)(Cc1ccc(Oc2ccc(C(N)=O)cc2Cl)cc1)NC[C@H](O)COc1ccccc1-c1ccno1.O=C(O)C(F)(F)F [Example 166],58.3 ± 9.5%
